Assay results taken from ChEMBL document CHEMBL1201861, “Genomics of Drug Sensitity in Cancer screening data, Wellcome Trust Sanger Institute”.
Values belong to the compound of their own block, whether it stands above or below them.

How the values were obtained:
MHH-ES-1 = assay: cells; format: functional, cell-based; conditions: Homo sapiens
Description: SANGER: Inhibition of human MHH-ES-1 cell growth in a cell viability assay.

VMRC-RCZ = assay: cells; format: functional, cell-based; conditions: Homo sapiens
Description: SANGER: Inhibition of human VMRC-RCZ cell growth in a cell viability assay.

T84 = assay: cells; format: functional, cell-based; conditions: Homo sapiens;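 note: growth inhibition measured with a cell viability readout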
Description: SANGER: Inhibition of human T84 cell growth in a cell viability assay.

SW780 = assay: cells; format: functional, cell-based; conditions: Homo sapiens;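 note: growth inhibition of the cells, read out with a cell viability assay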
Description: SANGER: Inhibition of human SW780 cell growth in a cell viability assay.

SAS = assay: cells; format: functional, cell-based; conditions: Homo sapiens;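 note: growth inhibition of SAS cells, read out with a cell viability assay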
Description: SANGER: Inhibition of human SAS cell growth in a cell viability assay.

SW1088 = assay: cells; format: functional, cell-based; conditions: Homo sapiens;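 note: growth inhibition of human SW1088 cells, read out by a cell viability assay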
Description: SANGER: Inhibition of human SW1088 cell growth in a cell viability assay.

SW1573 = assay: cells; format: functional, cell-based; conditions: Homo sapiens;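 note: growth inhibition of SW1573 cells, read out with a cell viability assay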
Description: SANGER: Inhibition of human SW1573 cell growth in a cell viability assay.

HSC-2 = assay: cells; format: functional, cell-based; conditions: Homo sapiens;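 note: growth inhibition of human HSC-2 cells, read out by a cell viability assay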
Description: SANGER: Inhibition of human HSC-2 cell growth in a cell viability assay.

CAL-62 = assay: cells; format: functional, cell-based; conditions: Homo sapiens;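 note: growth inhibition of CAL-62 cells, read out with a cell viability assay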
Description: SANGER: Inhibition of human CAL-62 cell growth in a cell viability assay.

MCF7 = assay: cells; format: functional, cell-based; conditions: Homo sapiens;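 note: growth inhibition of human MCF7 cells, read out with a cell viability assay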
Description: SANGER: Inhibition of human MCF7 cell growth in a cell viability assay.

NCI-H1792 = assay: cells; format: functional, cell-based; conditions: Homo sapiens;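 note: growth inhibition of human NCI-H1792 cells, read out as cell viability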
Description: SANGER: Inhibition of human NCI-H1792 cell growth in a cell viability assay.

MFE-280 = assay: cells; format: functional, cell-based; conditions: Homo sapiens;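 note: growth inhibition of MFE-280 cells, determined with a cell viability readout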
Description: SANGER: Inhibition of human MFE-280 cell growth in a cell viability assay.

CP50-MEL-B = assay: cells; format: functional, cell-based; conditions: Homo sapiens;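 note: growth inhibition of the human cell line, measured with a cell viability read-out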
Description: SANGER: Inhibition of human CP50-MEL-B cell growth in a cell viability assay.

PA-1 = assay: cells; format: functional, cell-based; conditions: Homo sapiens;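 note: IC50 for suppression of PA-1 cell proliferation, determined with a cell viability read-out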
Description: SANGER: Inhibition of human PA-1 cell growth in a cell viability assay.

DK-MG = assay: cells; format: functional, cell-based; conditions: Homo sapiens;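 note: growth inhibition of DK-MG cells, read out with a cell viability assay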
Description: SANGER: Inhibition of human DK-MG cell growth in a cell viability assay.

M14 = assay: cells; format: functional, cell-based; conditions: Homo sapiens;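 note: growth inhibition of M14 cells, read out with a cell viability assay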
Description: SANGER: Inhibition of human M14 cell growth in a cell viability assay.

PANC-08-13 = assay: cells; format: functional, cell-based; conditions: Homo sapiens
Description: SANGER: Inhibition of human PANC-08-13 cell growth in a cell viability assay.

EGI-1 = assay: cells; format: functional, cell-based; conditions: Homo sapiens;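 note: cell viability readout used to gauge growth inhibition of EGI-1 cells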
Description: SANGER: Inhibition of human EGI-1 cell growth in a cell viability assay.

OVCAR-5 = assay: cells; format: functional, cell-based; conditions: Homo sapiens;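 note: growth inhibition of human OVCAR-5 cells, read out with a cell viability assay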
Description: SANGER: Inhibition of human OVCAR-5 cell growth in a cell viability assay.

SW48 = assay: cells; format: functional, cell-based; conditions: Homo sapiens;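 note: growth inhibition of SW48 cells, read out with a cell viability assay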
Description: SANGER: Inhibition of human SW48 cell growth in a cell viability assay.

SCC-4 = assay: cells; format: functional, cell-based; conditions: Homo sapiens;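 note: growth inhibition of human SCC-4 cells, read out as cell viability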
Description: SANGER: Inhibition of human SCC-4 cell growth in a cell viability assay.

OVCAR-3 = assay: cells; format: functional, cell-based; conditions: Homo sapiens;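 note: growth inhibition of human OVCAR-3 cells, determined by a cell viability assay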
Description: SANGER: Inhibition of human OVCAR-3 cell growth in a cell viability assay.

KYSE-450 = assay: cells; format: functional, cell-based; conditions: Homo sapiens;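 note: cell growth inhibition measured by a viability assay in human KYSE-450 cells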
Description: SANGER: Inhibition of human KYSE-450 cell growth in a cell viability assay.

COLO-679 = assay: cells; format: functional, cell-based; conditions: Homo sapiens
Description: SANGER: Inhibition of human COLO-679 cell growth in a cell viability assay.

HCC1937 = assay: cells; format: functional, cell-based; conditions: Homo sapiens;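 note: growth inhibition measured with a cell viability read-out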
Description: SANGER: Inhibition of human HCC1937 cell growth in a cell viability assay.

639-V = assay: cells; format: functional, cell-based; conditions: Homo sapiens;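 note: growth inhibition of 639-V cells, read out with a cell viability assay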
Description: SANGER: Inhibition of human 639-V cell growth in a cell viability assay.

NCI-H292 = assay: cells; format: functional, cell-based; conditions: Homo sapiens;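 note: growth inhibition of NCI-H292 cells, read out with a cell viability assay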
Description: SANGER: Inhibition of human NCI-H292 cell growth in a cell viability assay.

NCI-H2342 = assay: cells; format: functional, cell-based; conditions: Homo sapiens;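 note: growth inhibition of the cancer cell line, determined with a cell viability assay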
Description: SANGER: Inhibition of human NCI-H2342 cell growth in a cell viability assay.

MEL-HO = assay: cells; format: functional, cell-based; conditions: Homo sapiens
Description: SANGER: Inhibition of human MEL-HO cell growth in a cell viability assay.

Kasumi 1 = assay: cells; format: functional, cell-based, Homo sapiens; conditions: Homo sapiens, Kasumi 1;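 note: growth inhibition of human Kasumi-1 cells, read out by a cell viability assay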
Description: SANGER: Inhibition of human KASUMI-1 cell growth in a cell viability assay.

LK-2 = assay: cells; format: functional, cell-based; conditions: Homo sapiens;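 note: growth inhibition of LK-2 cells, read out with a viability assay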
Description: SANGER: Inhibition of human LK-2 cell growth in a cell viability assay.

MFH-ino = assay: cells; format: functional, cell-based, Homo sapiens; conditions: Homo sapiens, MFH-ino;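 note: growth inhibition of human MFH-ino cells, read out by a cell viability assay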
Description: SANGER: Inhibition of human MFH-ino cell growth in a cell viability assay.

8305C = assay: cells; format: functional, cell-based; conditions: Homo sapiens
Description: SANGER: Inhibition of human 8305C cell growth in a cell viability assay.

SW1783 = assay: cells; format: functional, cell-based; conditions: Homo sapiens
Description: SANGER: Inhibition of human SW1783 cell growth in a cell viability assay.

KYSE-270 = assay: cells; format: functional, cell-based; conditions: Homo sapiens;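 note: cell growth inhibition measured with a viability assay in the human KYSE-270 line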
Description: SANGER: Inhibition of human KYSE-270 cell growth in a cell viability assay.

NCI-H2170 = assay: cells; format: functional, cell-based; conditions: Homo sapiens;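 note: cell viability assay measuring growth inhibition of human NCI-H2170 cancer cells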
Description: SANGER: Inhibition of human NCI-H2170 cell growth in a cell viability assay.

NCI-H2122 = assay: cells; format: functional, cell-based; conditions: Homo sapiens;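 note: growth inhibition of the cells, read out with a cell viability assay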
Description: SANGER: Inhibition of human NCI-H2122 cell growth in a cell viability assay.

ESS-1 = assay: cells; format: functional, cell-based; conditions: Homo sapiens;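 note: growth inhibition of human ESS-1 cells, read out by a cell viability assay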
Description: SANGER: Inhibition of human ESS-1 cell growth in a cell viability assay.

CAKI-1 = assay: cells; format: functional, cell-based; conditions: Homo sapiens;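 note: growth inhibition of CAKI-1 cells, measured by a cell viability assay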
Description: SANGER: Inhibition of human CAKI-1 cell growth in a cell viability assay.

KU-19-19 = assay: cells; format: functional, cell-based; conditions: Homo sapiens
Description: SANGER: Inhibition of human KU-19-19 cell growth in a cell viability assay.

NB7 = assay: cells; format: functional, cell-based, Homo sapiens; conditions: Homo sapiens, NB7;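 note: growth inhibition of NB7 cells, read out with a cell viability assay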
Description: SANGER: Inhibition of human NB7 cell growth in a cell viability assay.

MDA-MB-175-VII = assay: cells; format: functional, cell-based; conditions: Homo sapiens
HCC1395 = assay: cells; format: functional, cell-based; conditions: Homo sapiens;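 note: growth inhibition of HCC1395 cells, read out by a cell viability assay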
Description: SANGER: Inhibition of human HCC1395 cell growth in a cell viability assay.

U-251 = assay: cells; format: functional, cell-based; conditions: Homo sapiens;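 note: growth inhibition of human U-251 cells, read out through a cell viability assay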
Description: SANGER: Inhibition of human U251 cell growth in a cell viability assay.

NCI-H810 = assay: cells; format: functional, cell-based; conditions: Homo sapiens;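 note: IC50 reflects inhibition of cancer cell line growth, read out with a cell viability assay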
Description: SANGER: Inhibition of human NCI-H810 cell growth in a cell viability assay.

A-427 = assay: cells; format: functional, cell-based; conditions: Homo sapiens;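 note: growth inhibition of human A-427 cells, read out by a cell viability assay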
Description: SANGER: Inhibition of human A427 cell growth in a cell viability assay.

P12-Ichikawa = assay: cells; format: functional, cell-based; conditions: Homo sapiens
HuP-T3 = assay: cells; format: functional, cell-based; conditions: Homo sapiens;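 note: HuP-T3 cell growth inhibition, read out with a cell viability assay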
Description: SANGER: Inhibition of human HuP-T3 cell growth in a cell viability assay.

RCM-1 = assay: cells; format: functional, cell-based; conditions: Homo sapiens;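 note: growth inhibition of the RCM-1 line, determined with a cell viability readout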
Description: SANGER: Inhibition of human RCM-1 cell growth in a cell viability assay.

IM-9 = assay: SANGER: Inhibition of human IM-9 cell growth in a cell viability assay.; format: functional, cell-based; conditions: Homo sapiens, IM-9

Structure (SMILES): CN(NC(=O)CC(=O)NN(C)C(=S)c1ccccc1)C(=S)c1ccccc1 [ELESCLOMOL]
- IC50 (MHH-ES-1): 5.69 nM
- IC50 (VMRC-RCZ): 108 nM
- IC50 (T84): > 200 nM
- IC50 (SW780): 30.3 nM
- IC50 (SAS): 22.5 nM
- IC50 (SW1088): 82.1 nM
- IC50 (SW1573): 10.7 nM
- IC50 (HSC-2): 107 nM
- IC50 (CAL-62): 55.2 nM
- IC50 (MCF7): 31.4 nM
- IC50 (NCI-H1792): > 200 nM
- IC50 (MFE-280): > 200 nM
- IC50 (CP50-MEL-B): 8.63 nM
- IC50 (PA-1): 8.84 nM
- IC50 (DK-MG): 17.1 nM
- IC50 (M14): 122 nM
- IC50 (PANC-08-13): 9.63 nM
- IC50 (EGI-1): 8.38 nM
- IC50 (OVCAR-5): 1.83 nM
- IC50 (SW48): 108 nM
- IC50 (SCC-4): > 200 nM
- IC50 (OVCAR-3): 6.2 nM
- IC50 (KYSE-450): 39 nM
- IC50 (COLO-679): 14.1 nM
- IC50 (HCC1937): 35.2 nM
- IC50 (639-V): 16.7 nM
- IC50 (NCI-H292): 0.886 nM
- IC50 (NCI-H2342): 43.3 nM
- IC50 (MEL-HO): > 200 nM
- IC50 (Kasumi 1): > 200 nM
- IC50 (LK-2): 19.7 nM
- IC50 (MFH-ino): > 200 nM
- IC50 (8305C): 192 nM
- IC50 (SW1783): 139 nM
- IC50 (KYSE-270): 37.1 nM
- IC50 (NCI-H2170): 28.8 nM
- IC50 (NCI-H2122): 130 nM
- IC50 (ESS-1): 102 nM
- IC50 (CAKI-1): 24.1 nM
- IC50 (KU-19-19): 7.09 nM
- IC50 (NB7): 14.4 nM
- IC50 (MDA-MB-175-VII): > 200 nM
- IC50 (HCC1395): 8.47 nM
- IC50 (U-251): 9.86 nM
- IC50 (NCI-H810): 125 nM
- IC50 (A-427): 6.07 nM
- IC50 (P12-Ichikawa): 4.04 nM
- IC50 (HuP-T3): 55.8 nM
- IC50 (RCM-1): > 200 nM

- IC50 (MCF7): 333 nM
- IC50 (NCI-H1792): 331 nM
- IC50 (EGI-1): > 512 nM
- IC50 (OVCAR-5): > 512 nM
- IC50 (SW48): 267 nM
- IC50 (SCC-4): 240 nM
- IC50 (8305C): > 512 nM
- IC50 (SW1783): > 512 nM
- IC50 (KYSE-270): 168 nM
- IC50 (NCI-H2122): 323 nM
- IC50 (HCC1395): 84.3 nM
- IC50 (NCI-H810): 210 nM
- IC50 (HuP-T3): > 512 nM
Structure (SMILES): CO[C@@H]1[C@H](N(C)C(=O)c2ccccc2)C[C@H]2O[C@]1(C)n1c3ccccc3c3c4c(c5c6ccccc6n2c5c31)C(=O)NC4 [MIDOSTAURIN]
- IC50 (IM-9): > 512 nM

Structure (SMILES): CC1=C(/C=C/C(C)=C/C=C/C(C)=C/C(=O)O)C(C)(C)CCC1 [TRETINOIN]
- IC50 (MHH-ES-1): > 10000 nM
- IC50 (VMRC-RCZ): > 10000 nM
- IC50 (T84): > 10000 nM
- IC50 (SW780): > 10000 nM
- IC50 (SAS): > 10000 nM
- IC50 (SW1088): > 10000 nM
- IC50 (SW1573): > 10000 nM
- IC50 (HSC-2): > 10000 nM
- IC50 (CAL-62): > 10000 nM
- IC50 (MCF7): > 10000 nM
- IC50 (NCI-H1792): > 10000 nM
- IC50 (MFE-280): > 10000 nM
- IC50 (CP50-MEL-B): > 10000 nM
- IC50 (PA-1): > 10000 nM
- IC50 (DK-MG): > 10000 nM
- IC50 (M14): > 10000 nM
- IC50 (PANC-08-13): > 10000 nM
- IC50 (EGI-1): > 10000 nM
- IC50 (OVCAR-5): > 10000 nM
- IC50 (SW48): > 10000 nM
- IC50 (SCC-4): > 10000 nM
- IC50 (OVCAR-3): > 10000 nM
- IC50 (KYSE-450): > 10000 nM
- IC50 (COLO-679): > 10000 nM
- IC50 (HCC1937): > 10000 nM
- IC50 (639-V): > 10000 nM
- IC50 (NCI-H292): > 10000 nM
- IC50 (NCI-H2342): > 10000 nM
- IC50 (MEL-HO): > 10000 nM
- IC50 (LK-2): > 10000 nM
- IC50 (MFH-ino): > 10000 nM
- IC50 (8305C): > 10000 nM
- IC50 (SW1783): > 10000 nM
- IC50 (KYSE-270): > 10000 nM
- IC50 (NCI-H2170): > 10000 nM
- IC50 (NCI-H2122): > 10000 nM
- IC50 (ESS-1): > 10000 nM
- IC50 (CAKI-1): > 10000 nM
- IC50 (KU-19-19): > 10000 nM
- IC50 (NB7): > 10000 nM
- IC50 (MDA-MB-175-VII): > 10000 nM
- IC50 (HCC1395): > 10000 nM
- IC50 (U-251): > 10000 nM
- IC50 (NCI-H810): > 10000 nM
- IC50 (A-427): > 10000 nM
- IC50 (P12-Ichikawa): > 10000 nM
- IC50 (HuP-T3): > 10000 nM
- IC50 (RCM-1): > 10000 nM

Structure (SMILES): NC(=O)c1ccc(N(C(N)=O)c2c(F)cccc2F)nc1-c1ccc(F)cc1F [VX-702]
- IC50 (MHH-ES-1): > 2000 nM
- IC50 (VMRC-RCZ): > 2000 nM
- IC50 (T84): > 2000 nM
- IC50 (SW780): > 2000 nM
- IC50 (SAS): > 2000 nM
- IC50 (SW1088): > 2000 nM
- IC50 (SW1573): > 2000 nM
- IC50 (HSC-2): > 2000 nM
- IC50 (CAL-62): > 2000 nM
- IC50 (MCF7): > 2000 nM
- IC50 (NCI-H1792): > 2000 nM
- IC50 (MFE-280): > 2000 nM
- IC50 (CP50-MEL-B): > 2000 nM
- IC50 (PA-1): > 2000 nM
- IC50 (DK-MG): > 2000 nM
- IC50 (M14): > 2000 nM
- IC50 (PANC-08-13): > 2000 nM
- IC50 (EGI-1): > 2000 nM
- IC50 (OVCAR-5): > 2000 nM
- IC50 (SW48): > 2000 nM
- IC50 (SCC-4): > 2000 nM
- IC50 (OVCAR-3): > 2000 nM
- IC50 (KYSE-450): > 2000 nM
- IC50 (COLO-679): > 2000 nM
- IC50 (HCC1937): > 2000 nM
- IC50 (639-V): > 2000 nM
- IC50 (NCI-H292): > 2000 nM
- IC50 (NCI-H2342): > 2000 nM
- IC50 (MEL-HO): > 2000 nM
- IC50 (LK-2): > 2000 nM
- IC50 (MFH-ino): > 2000 nM
- IC50 (8305C): > 2000 nM
- IC50 (SW1783): > 2000 nM
- IC50 (KYSE-270): > 2000 nM
- IC50 (NCI-H2170): > 2000 nM
- IC50 (NCI-H2122): > 2000 nM
- IC50 (ESS-1): > 2000 nM
- IC50 (CAKI-1): > 2000 nM
- IC50 (KU-19-19): > 2000 nM
- IC50 (NB7): > 2000 nM
- IC50 (MDA-MB-175-VII): > 2000 nM
- IC50 (HCC1395): > 2000 nM
- IC50 (U-251): > 2000 nM
- IC50 (NCI-H810): > 2000 nM
- IC50 (A-427): > 2000 nM
- IC50 (P12-Ichikawa): > 2000 nM
- IC50 (HuP-T3): > 2000 nM
- IC50 (RCM-1): > 2000 nM
